Assay results from PMC8119466, “A screen of FDA-approved drugs identifies inhibitors of protein tyrosine phosphatase 4A3 (PTP4A3 or PRL-3)” (Scientific Reports, 2021).
Structures can show the parent of a compound that is named as a salt.

Assays:
Assay type in all cases: biochemical
Conditions in all cases: FDA-approved drug screen; compared to DMSO
[1] = molecular target: T1, recombinant PRL-1 (Homo sapiens, UniProt Q93096); assay: In vitro phosphatase assay (DiFMUP hydrolysis), PRL-1; note: test concentration or dose not given here
T1 construct: 6xHis (N, cleaved yes); made in house; host or cells: E. coli One Shot BL21 Star
T1 sequence (Q93096 1-173): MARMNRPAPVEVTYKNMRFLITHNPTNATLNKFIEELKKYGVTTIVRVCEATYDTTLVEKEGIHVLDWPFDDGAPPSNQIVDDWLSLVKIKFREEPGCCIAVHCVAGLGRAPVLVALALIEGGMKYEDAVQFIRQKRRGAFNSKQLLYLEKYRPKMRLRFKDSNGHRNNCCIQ

[2] = molecular target: T2, recombinant PRL-2 (Homo sapiens, UniProt Q12974); assay: In vitro phosphatase assay (DiFMUP hydrolysis), PRL-2;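 note: PRL-2 activity read as DiFMUP hydrolysis after 20 min at room temperature with drug, enzyme first pre-reduced at 4 °C for 20 min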
T2 construct: 6xHis (N, cleaved yes); made in house; host or cells: E. coli One Shot BL21 Star
T2 sequence (Q12974 1-167): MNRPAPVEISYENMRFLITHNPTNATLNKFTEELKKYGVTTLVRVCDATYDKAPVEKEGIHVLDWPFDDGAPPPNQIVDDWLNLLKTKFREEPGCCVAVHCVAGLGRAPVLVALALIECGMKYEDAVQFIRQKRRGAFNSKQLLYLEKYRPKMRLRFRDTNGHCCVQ

[3] = molecular target: T3, recombinant PRL-3 (Homo sapiens, UniProt O75365); assay: In vitro phosphatase assay (DiFMUP hydrolysis), PRL-3; note: test concentration or dose not given here
T3 construct: 6xHis (N, cleaved yes); made in house; host or cells: E. coli One Shot BL21 Star
T3 sequence (O75365 whole entry): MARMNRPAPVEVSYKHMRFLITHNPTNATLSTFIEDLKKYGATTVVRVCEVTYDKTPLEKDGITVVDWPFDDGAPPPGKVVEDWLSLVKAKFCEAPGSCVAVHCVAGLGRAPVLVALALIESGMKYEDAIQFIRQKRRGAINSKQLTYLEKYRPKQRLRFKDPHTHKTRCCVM

CCCCc1ncc(/C=C(\Cc2cccs2)C(=O)O)n1Cc1ccc(C(=O)O)cc1 [Eprosartan Mesylate]
% Phosphatase Activity (compared to DMSO) PRL-1 [1]: 89% | % Phosphatase Activity (compared to DMSO) PRL-2 [2]: 100% | % Phosphatase Activity (compared to DMSO) PRL-3 [3]: 72%

O=C(O)CSCC(=O)NC1CCSC1=O (stereo not drawn) [Erdosteine]
% Phosphatase Activity (compared to DMSO) PRL-1 [1]: 93% | % Phosphatase Activity (compared to DMSO) PRL-2 [2]: 89% | % Phosphatase Activity (compared to DMSO) PRL-3 [3]: 95%

C#Cc1cccc(Nc2ncnc3cc(OCCOC)c(OCCOC)cc23)c1.Cl [Erlotinib HCl (OSI-744)]
% Phosphatase Activity (compared to DMSO) PRL-1 [1]: 110% | % Phosphatase Activity (compared to DMSO) PRL-2 [2]: 128% | % Phosphatase Activity (compared to DMSO) PRL-3 [3]: 87%

C#Cc1cccc(Nc2ncnc3cc(OCCOC)c(OCCOC)cc23)c1 [Erlotinib]
% Phosphatase Activity (compared to DMSO) PRL-1 [1]: 113% | % Phosphatase Activity (compared to DMSO) PRL-2 [2]: 110% | % Phosphatase Activity (compared to DMSO) PRL-3 [3]: 123%

CCOC(=O)CCC(=O)O[C@H]1[C@H](O[C@@H]2[C@@H](C)[C@H](O[C@H]3C[C@@](C)(OC)[C@@H](O)[C@H](C)O3)[C@@H](C)C(=O)O[C@H](CC)[C@@](C)(O)[C@H](O)[C@@H](C)C(=O)[C@H](C)C[C@@]2(C)O)O[C@H](C)C[C@@H]1N(C)C [Erythromycin Ethylsuccinate]
% Phosphatase Activity (compared to DMSO) PRL-1 [1]: 85% | % Phosphatase Activity (compared to DMSO) PRL-2 [2]: 82% | % Phosphatase Activity (compared to DMSO) PRL-3 [3]: 71%

CC[C@H]1OC(=O)[C@H](C)[C@@H](O[C@H]2C[C@@](C)(OC)[C@@H](O)[C@H](C)O2)[C@H](C)[C@@H](O[C@@H]2O[C@H](C)C[C@H](N(C)C)[C@H]2O)[C@](C)(O)C[C@@H](C)C(=O)[C@H](C)[C@@H](O)[C@]1(C)O [Erythromycin]
% Phosphatase Activity (compared to DMSO) PRL-1 [1]: 91% | % Phosphatase Activity (compared to DMSO) PRL-2 [2]: 93% | % Phosphatase Activity (compared to DMSO) PRL-3 [3]: 79%

CN(C)CCC[C@@]1(c2ccc(F)cc2)OCc2cc(C#N)ccc21 [Escitalopram Oxalate]
% Phosphatase Activity (compared to DMSO) PRL-1 [1]: 89% | % Phosphatase Activity (compared to DMSO) PRL-2 [2]: 117% | % Phosphatase Activity (compared to DMSO) PRL-3 [3]: 67%

CC(=O)O[C@H]1Cc2ccccc2N(C(N)=O)c2ccccc21 [Eslicarbazepine Acetate]
% Phosphatase Activity (compared to DMSO) PRL-1 [1]: 94% | % Phosphatase Activity (compared to DMSO) PRL-2 [2]: 117% | % Phosphatase Activity (compared to DMSO) PRL-3 [3]: 75%

COC(=O)CCc1ccc(OCC(O)CNC(C)C)cc1 (stereo not drawn) [Esmolol HCl]
% Phosphatase Activity (compared to DMSO) PRL-1 [1]: 93% | % Phosphatase Activity (compared to DMSO) PRL-2 [2]: 101% | % Phosphatase Activity (compared to DMSO) PRL-3 [3]: 73%

COc1ccc2[n-]c([S+]([O-])Cc3ncc(C)c(OC)c3C)nc2c1.COc1ccc2[n-]c([S+]([O-])Cc3ncc(C)c(OC)c3C)nc2c1.[Mg+2] (stereo not drawn) [Esomeprazole Magnesium]
% Phosphatase Activity (compared to DMSO) PRL-1 [1]: 84% | % Phosphatase Activity (compared to DMSO) PRL-2 [2]: 88% | % Phosphatase Activity (compared to DMSO) PRL-3 [3]: 93%

COc1ccc2[n-]c([S@@+]([O-])Cc3ncc(C)c(OC)c3C)nc2c1.[Na+] [Esomeprazole Sodium]
% Phosphatase Activity (compared to DMSO) PRL-1 [1]: 112% | % Phosphatase Activity (compared to DMSO) PRL-2 [2]: 124% | % Phosphatase Activity (compared to DMSO) PRL-3 [3]: 92%

C[C@]12CC[C@@H]3c4ccc(OC(=O)c5ccccc5)cc4CC[C@H]3[C@@H]1CC[C@@H]2O [Estradiol Benzoate]
% Phosphatase Activity (compared to DMSO) PRL-1 [1]: 110% | % Phosphatase Activity (compared to DMSO) PRL-2 [2]: 117% | % Phosphatase Activity (compared to DMSO) PRL-3 [3]: 91%

C[C@]12CC[C@@H]3c4ccc(O)cc4CC[C@H]3[C@@H]1CC[C@@H]2OC(=O)CCC1CCCC1 [Estradiol Cypionate]
% Phosphatase Activity (compared to DMSO) PRL-1 [1]: 96% | % Phosphatase Activity (compared to DMSO) PRL-2 [2]: 109% | % Phosphatase Activity (compared to DMSO) PRL-3 [3]: 74%

CCCCC(=O)O[C@H]1CC[C@H]2[C@@H]3CCc4cc(O)ccc4[C@H]3CC[C@]12C [Estradiol valerate]
% Phosphatase Activity (compared to DMSO) PRL-1 [1]: 103% | % Phosphatase Activity (compared to DMSO) PRL-2 [2]: 99% | % Phosphatase Activity (compared to DMSO) PRL-3 [3]: 85%

C[C@]12CC[C@@H]3c4ccc(O)cc4CC[C@H]3[C@@H]1CC[C@@H]2O [Estradiol]
% Phosphatase Activity (compared to DMSO) PRL-1 [1]: 92% | % Phosphatase Activity (compared to DMSO) PRL-2 [2]: 113% | % Phosphatase Activity (compared to DMSO) PRL-3 [3]: 84%

C[C@]12CC[C@@H]3c4ccc(O)cc4CC[C@H]3[C@@H]1C[C@@H](O)[C@@H]2O [Estriol]
% Phosphatase Activity (compared to DMSO) PRL-1 [1]: 117% | % Phosphatase Activity (compared to DMSO) PRL-2 [2]: 111% | % Phosphatase Activity (compared to DMSO) PRL-3 [3]: 79%

C[C@]12CC[C@@H]3c4ccc(O)cc4CC[C@H]3[C@@H]1CCC2=O [Estrone]
% Phosphatase Activity (compared to DMSO) PRL-1 [1]: 107% | % Phosphatase Activity (compared to DMSO) PRL-2 [2]: 87% | % Phosphatase Activity (compared to DMSO) PRL-3 [3]: 76%

CCOc1ccc2nc3cc(N)ccc3c(N)c2c1 [Ethacridine lactate monohydrate]
% Phosphatase Activity (compared to DMSO) PRL-1 [1]: 246% | % Phosphatase Activity (compared to DMSO) PRL-2 [2]: 215% | % Phosphatase Activity (compared to DMSO) PRL-3 [3]: 201%
